{"source": "paper PMC10564737", "about": "“Structure-based design of a phosphotyrosine-masked covalent ligand targeting the E3 ligase SOCS2” (Nature Communications, 2023)", "key": {"SOCS2 (SBC2)": {"target": "T1, SOCS2 (SBC2) (Homo sapiens, UniProt O14508)", "T1 construct": "SOCS2 (amino acids 32–198); His6 (N, cleaved yes); made in house; host or cells: E. coli BL21(DE3)", "T1 sequence (O14508 32-198)": "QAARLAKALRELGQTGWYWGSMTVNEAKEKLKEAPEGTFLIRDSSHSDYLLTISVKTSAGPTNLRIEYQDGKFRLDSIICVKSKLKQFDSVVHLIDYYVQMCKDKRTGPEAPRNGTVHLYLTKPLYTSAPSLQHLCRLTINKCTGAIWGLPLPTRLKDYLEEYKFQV", "T1 sequence (Q15369 17-112, further chain)": "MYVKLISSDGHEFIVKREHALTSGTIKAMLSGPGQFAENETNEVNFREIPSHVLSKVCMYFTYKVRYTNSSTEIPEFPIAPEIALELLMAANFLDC", "T1 sequence (Q15370 1-104, further chain)": "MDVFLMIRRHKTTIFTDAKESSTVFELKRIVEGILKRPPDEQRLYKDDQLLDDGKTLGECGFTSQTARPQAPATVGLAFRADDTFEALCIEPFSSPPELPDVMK", "test": "Intact ESI-MS of recombinant protein, covalent modification", "assay_type": "biochemical", "conditions": "SOCS2 WT + MN551 (1:1, 40 µM)"}, "[1]": {"test_system": "reduced glutathione (GSH)", "test": "Glutathione (GSH) reactivity assay", "assay_type": "physicochemical", "conditions": "5 mM reduced glutathione (GSH) in potassium phosphate buffer; 5 mM GSH, 37 °C, pH 7.4", "procedure": "MN551/MN714 (1/10 μM) were incubated at 37 °C with 5 mM GSH in 100 mM potassium phosphate buffer, pH 7.4 (0.1% DMSO). […] Samples were then analyzed with an LC (Shimadzu LC-40)/MS/MS (Triple Quad 6500+). From the mass spectrum, peak area ratios (peak area analyte/peak area of a stable internal standard) were calculated and the percent compound remaining was determined relative to time zero."}, "[2]": {"target": "T2, SOCS2 C111S mutant (SBC2 C111S) (Homo sapiens, UniProt O14508, C111S)", "T2 construct": "SOCS2 (amino acids 32–198); His6 (N, cleaved yes); made in house; host or cells: E. coli BL21(DE3)", "T2 sequence (Q15370 1-104)": "as the sequence (Q15370 1-104, further chain) above", "T2 sequence (Q15369 17-112, further chain)": "as the sequence (Q15369 17-112, further chain) above", "T2 sequence (O14508 32-198 C111S)": "as the sequence (O14508 32-198) above, with C80S counted along it", "test": "Intact ESI-MS of recombinant protein, covalent modification", "assay_type": "biochemical", "conditions": "for % modified: SOCS2 C111S + MN551 (1:1, 50 µM)", "procedure": "[…] At defined time points 20 µl samples were removed and the protein precipitated by the addition of 80 µl methanol. The precipitated protein was pelleted by centrifugation, washed with 500 µl methanol, and resuspended in an aqueous solution of 15% acetonitrile and 1% TFA. Samples were separated by HPLC on a C3 column using a 10–75% gradient of acetonitrile and analyzed using an Agilent 6130 quadrupole MS. Spectra were deconvoluted and integrated using Agilent LC/MSD ChemStation."}}, "note": "“Also recorded” adds a separate entry of the source.", "data": [{"smiles": "O=C(CCl)Nc1cccc(CNC(=O)[C@H](Cc2ccc(OP(=O)(O)O)cc2)NC(=O)Cc2ccc(F)cc2)c1", "note": "[MN551]", "values": [{"measurement": "% modified", "setting": "SOCS2 (SBC2); t = 0 min", "result": 0.0, "unit": "%"}, {"measurement": "% modified", "setting": "SOCS2 (SBC2); t = 5 min", "result": 12.6, "unit": "%"}, {"measurement": "% modified", "setting": "SOCS2 (SBC2); t = 10 min", "result": 18.9, "unit": "%"}, {"measurement": "% modified", "setting": "SOCS2 (SBC2); t = 20 min", "result": 41.4, "unit": "%"}, {"measurement": "% modified", "setting": "SOCS2 (SBC2); t = 40 min", "result": 73.7, "unit": "%"}, {"measurement": "% modified", "setting": "SOCS2 (SBC2); t = 60 min", "result": 88.0, "unit": "%"}, {"measurement": "% modified", "setting": "SOCS2 (SBC2); t = 90 min", "result": 100.0, "unit": "%"}, {"measurement": "% modified", "setting": "SOCS2 (SBC2); t = 120 min", "result": 100.0, "unit": "%"}, {"measurement": "half-life", "setting": "[1]", "result": "> 70", "unit": "min"}, {"measurement": "covalent reactivity with C111S mutant", "setting": "[2]", "result": "no reactivity; also recorded: does not covalently react"}, {"measurement": "% modified", "setting": "[2]; t = 0 min", "result": 0.0, "unit": "%"}, {"measurement": "% modified", "setting": "[2]; t = 5 min", "result": 0.0, "unit": "%"}, {"measurement": "% modified", "setting": "[2]; t = 10 min", "result": 0.0, "unit": "%"}, {"measurement": "% modified", "setting": "[2]; t = 20 min", "result": 0.0, "unit": "%"}, {"measurement": "% modified", "setting": "[2]; t = 40 min", "result": 0.0, "unit": "%"}, {"measurement": "% modified", "setting": "[2]; t = 60 min", "result": 0.0, "unit": "%"}, {"measurement": "% modified", "setting": "[2]; t = 90 min", "result": 0.0, "unit": "%"}, {"measurement": "% modified", "setting": "[2]; t = 120 min", "result": 0.0, "unit": "%"}]}]}
